Tests used:
[1] = test system: E. coli CysC (JM81A complemented with M. tuberculosis CysC); assay: microbe, parasite or virus in culture; type: cell-based; details: Escherichia coli, read-out: percent inhibition of growth
[2] = test system: E. coli CysH (JM81A complemented with M. smegmatis CysH); assay: microbe, parasite or virus in culture; type: cell-based; details: Escherichia coli; E. coli CysH strain; 25 μg/mL of compound; read-out: percent inhibition of growth
[3] = test system: E. coli BioB (JM81A control strain containing the BioB gene); assay: microbe, parasite or virus in culture; type: cell-based; details: Escherichia coli, 25 μg/mL of compound, read-out: percent inhibition of growth
[4] = molecular target: T1, M. tuberculosis CysC (APS kinase) (Mycobacterium tuberculosis, UniProt P9WNM5); type: biochemical
T1 construct: made in house; host or cells: E. coli BL21 STAR, plasmid pET28b(+)CysC
T1 sequence (P9WNM5 442-614 limits assumed): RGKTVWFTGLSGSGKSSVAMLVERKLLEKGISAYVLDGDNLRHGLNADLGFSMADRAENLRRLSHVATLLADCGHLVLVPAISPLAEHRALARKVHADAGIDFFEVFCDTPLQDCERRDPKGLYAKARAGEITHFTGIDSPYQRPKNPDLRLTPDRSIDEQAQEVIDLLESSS

APS kinase of E. coli = APS kinase of E. coli (Escherichia coli, UniProt P0A6J1); details: cited from earlier work
APS kinase of E. coli, sequence (P0A6J1 whole entry): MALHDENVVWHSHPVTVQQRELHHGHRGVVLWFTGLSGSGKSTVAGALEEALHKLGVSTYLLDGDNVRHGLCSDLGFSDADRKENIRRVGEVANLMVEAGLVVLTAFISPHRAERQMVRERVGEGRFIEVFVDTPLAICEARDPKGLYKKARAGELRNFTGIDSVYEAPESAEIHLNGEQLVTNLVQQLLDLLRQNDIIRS

SMILES | inhibition at 25 µg/mL [1] [%] | inhibition at 25 µg/mL [2] [%] | inhibition at 25 µg/mL [3] [%] | VmaxE0 [4] [s⁻¹] | VmaxE0 (two-fold decrease) [4] [mM⁻¹ s⁻¹] | apparent VmaxE0 [4] [s⁻¹] | Km (APS kinase of E. coli) [µM] | Km ([4]; read-out: apparent Km) [µM]
Nc1ccc(S(=O)(=O)Nc2cnc3ccccc3n2)cc1 | 94 | 29 | 77 | – | – | – | – | –
[N-]=[N+]=Nc1ccc(S(=O)(=O)Nc2ncccn2)cc1 | 95 | 0 | 85 | – | – | – | – | –
CC(=N/Nc1nc2ccccc2s1)/N=N/c1cccc(O)c1 | 47 | 0 | 0 | – | – | – | – | –
O=C(O)c1ccccc1N[C@H](c1ccccc1)c1ccc2cccnc2c1O | 93 | 25 | 1 | – | – | – | – | –
CCN(CC)CC[n+]1ccc2c(C)c3[nH]c4ccccc4c3c(C)c2c1 | 98 | 97 | 0 | – | – | – | – | –
O=C1Oc2ccccc2C(=O)/C1=C/Nc1ncc(-c2ccc(O)c(O)c2)s1 | 78 | 90 | 0 | – | – | – | – | –
Nc1ncnc2c1ncn2[C@@H]1O[C@H](COP(=O)(O)OS(=O)(=O)O)[C@@H](O)[C@H]1O [APS, adenylyl phosphosulfate] | – | – | – | 1.05 | 611 | 0.85 ± 0.04 | 0.25 | –
Nc1ncnc2c1ncn2[C@@H]1O[C@H](COP(=O)(O)OP(=O)(O)OP(=O)(O)O)[C@@H](O)[C@H]1O [ATP] | – | – | – | – | – | 0.95 ± 0.03 | – | 910 ± 100

Source: patent US6863895B2, “Mycobacterial sulfation pathway proteins and methods of use thereof” (priority 2001, dated 2005)
